Data published in ChEMBL document CHEMBL2390858, “Design, synthesis and anti-tuberculosis activity of 1-adamantyl-3-heteroaryl ureas with improved in vitro pharmacokinetic properties” (Bioorg Med Chem, 2013).
Values after ≈ are worked out from the molar mass of the structure shown.

Experiments:
Escherichia coli = experiment: microbe, parasite or virus in culture; details: K-12
Streptococcus pneumoniae = experiment: microbe, parasite or virus in culture
[1] = target: T1, Bifunctional epoxide hydrolase 2 (Homo sapiens, UniProt P34913)
T1 sequence (P34913 whole entry): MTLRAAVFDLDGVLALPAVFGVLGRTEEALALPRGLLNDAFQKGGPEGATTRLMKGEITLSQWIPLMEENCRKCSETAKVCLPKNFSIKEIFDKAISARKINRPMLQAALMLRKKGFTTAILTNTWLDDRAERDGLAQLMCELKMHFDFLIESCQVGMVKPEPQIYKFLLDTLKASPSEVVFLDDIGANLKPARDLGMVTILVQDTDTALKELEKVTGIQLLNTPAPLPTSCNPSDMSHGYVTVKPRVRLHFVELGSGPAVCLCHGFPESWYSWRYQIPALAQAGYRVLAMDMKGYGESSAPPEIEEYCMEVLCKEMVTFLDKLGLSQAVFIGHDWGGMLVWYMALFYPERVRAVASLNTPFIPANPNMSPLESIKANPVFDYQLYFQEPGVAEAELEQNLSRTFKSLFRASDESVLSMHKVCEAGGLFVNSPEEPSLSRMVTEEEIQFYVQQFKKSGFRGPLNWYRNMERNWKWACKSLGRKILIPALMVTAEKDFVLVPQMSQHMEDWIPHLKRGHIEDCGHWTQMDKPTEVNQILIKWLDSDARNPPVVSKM

Proteus vulgaris = experiment: microbe, parasite or virus in culture
[2] = buffer, 18 h, pH 7.4
Bacillus anthracis = experiment: microbe, parasite or virus in culture; details: Sterne
Streptococcus pyogenes = experiment: microbe, parasite or virus in culture
Klebsiella pneumoniae = experiment: microbe, parasite or virus in culture
Pseudomonas aeruginosa = experiment: microbe, parasite or virus in culture
Proteus mirabilis = experiment: microbe, parasite or virus in culture
Acinetobacter = experiment: microbe, parasite or virus in culture
Bacillus subtilis = experiment: microbe, parasite or virus in culture
Burkholderia cepacia = experiment: microbe, parasite or virus in culture
Staphylococcus aureus [3] = experiment: microbe, parasite or virus in culture; details: NRS70
Staphylococcus aureus [4] = experiment: microbe, parasite or virus in culture; details: ATCC 29213
[5] = system: Mycobacterium tuberculosis; experiment: microbe, parasite or virus in culture; details: H37Rv, 168 h
Enterococcus faecalis = experiment: microbe, parasite or virus in culture

Row | Structure (SMILES) | MIC (Escherichia coli) | MIC (Streptococcus pneumoniae) | IC50 [1] | MIC (Proteus vulgaris) | solubility [2] | MIC (Bacillus anthracis) | MIC (Streptococcus pyogenes) | MIC (Klebsiella pneumoniae) | MIC (Pseudomonas aeruginosa) | MIC (Proteus mirabilis) | MIC (Acinetobacter) | MIC (Bacillus subtilis) | MIC (Burkholderia cepacia) | MIC (Staphylococcus aureus [3]) | MIC (Staphylococcus aureus [4]) | MIC [5] | MIC (Enterococcus faecalis)
1 | O=C(Nc1ccccn1)NC12CC3CC(CC(C3)C1)C2 | > 200 µg/mL | > 200 µg/mL | 1500 nM | > 200 µg/mL | 1.4 µg/mL (≈ 5.16 µM) | > 200 µg/mL | > 200 µg/mL | > 200 µg/mL | > 200 µg/mL | > 200 µg/mL | > 200 µg/mL | – | – | – | – | – | –
2 | Cc1noc(NC(=O)NC23CC4CC(CC(C4)C2)C3)c1C | > 200 µg/mL | > 200 µg/mL | 20 nM | > 200 µg/mL | 5.7 µg/mL (≈ 19.7 µM) | – | > 200 µg/mL | > 200 µg/mL | > 200 µg/mL | > 200 µg/mL | – | > 200 µg/mL | > 200 µg/mL | > 200 µg/mL | > 200 µg/mL | 100 µg/mL (≈ 346 µM) | > 200 µg/mL
3 | Cc1nnc(NC(=O)NC23CC4CC(CC(C4)C2)C3)o1 | > 200 µg/mL | > 200 µg/mL | 595 nM | > 200 µg/mL | 9.77 µg/mL (≈ 35.4 µM) | > 200 µg/mL | > 200 µg/mL | > 200 µg/mL | > 200 µg/mL | > 200 µg/mL | > 200 µg/mL | > 200 µg/mL | > 200 µg/mL | > 200 µg/mL | > 200 µg/mL | 25 µg/mL (≈ 90.5 µM) | > 200 µg/mL
4 | O=C(Nc1nnc(C2CC2)o1)NC12CC3CC(CC(C3)C1)C2 | > 200 µg/mL | > 200 µg/mL | 503 nM | > 200 µg/mL | 38.3 µg/mL (≈ 127 µM) | 50 µg/mL (≈ 165 µM) | > 200 µg/mL | > 200 µg/mL | > 200 µg/mL | > 200 µg/mL | > 200 µg/mL | 100 µg/mL (≈ 331 µM) | > 200 µg/mL | > 200 µg/mL | > 200 µg/mL | 12.5 µg/mL (≈ 41.3 µM) | > 200 µg/mL
5 | O=C(Nc1nnc(C2CCC2)o1)NC12CC3CC(CC(C3)C1)C2 | > 200 µg/mL | 100 µg/mL (≈ 316 µM) | 241 nM | > 200 µg/mL | 10.5 µg/mL (≈ 33.2 µM) | 25 µg/mL (≈ 79 µM) | 100 µg/mL (≈ 316 µM) | > 200 µg/mL | > 200 µg/mL | > 200 µg/mL | > 200 µg/mL | 50 µg/mL (≈ 158 µM) | > 200 µg/mL | 50 µg/mL (≈ 158 µM) | 50 µg/mL (≈ 158 µM) | 12.5 µg/mL (≈ 39.5 µM) | 100 µg/mL (≈ 316 µM)
6 | O=C(Nc1nnc(-c2cccs2)o1)NC12CC3CC(CC(C3)C1)C2 | > 200 µg/mL | > 200 µg/mL | 1570 nM | > 200 µg/mL | 2.2 µg/mL (≈ 6.39 µM) | > 200 µg/mL | > 200 µg/mL | > 200 µg/mL | > 200 µg/mL | > 200 µg/mL | > 200 µg/mL | > 200 µg/mL | > 200 µg/mL | > 200 µg/mL | > 200 µg/mL | 100 µg/mL (≈ 290 µM) | –
7 | CCn1ccc(NC(=O)NC23CC4CC(CC(C4)C2)C3)n1 | > 200 µg/mL | 200 µg/mL (≈ 693 µM) | 884 nM | > 200 µg/mL | 10.5 µg/mL (≈ 36.4 µM) | 100 µg/mL (≈ 347 µM) | 0.78 µg/mL (≈ 2.7 µM) | > 200 µg/mL | > 200 µg/mL | > 200 µg/mL | > 200 µg/mL | 200 µg/mL (≈ 693 µM) | > 200 µg/mL | 200 µg/mL (≈ 693 µM) | > 200 µg/mL | 25 µg/mL (≈ 86.7 µM) | > 200 µg/mL
8 | CCn1nc(NC(=O)NC23CC4CC(CC(C4)C2)C3)cc1C | > 200 µg/mL | > 200 µg/mL | 2510 nM | > 200 µg/mL | 13.2 µg/mL (≈ 43.6 µM) | > 200 µg/mL | > 200 µg/mL | > 200 µg/mL | > 200 µg/mL | > 200 µg/mL | > 200 µg/mL | > 200 µg/mL | > 200 µg/mL | > 200 µg/mL | > 200 µg/mL | 12.5 µg/mL (≈ 41.3 µM) | > 200 µg/mL
